Measurements taken from PubChem BioAssay AID588552 (Johns Hopkins Ion Channel Center, 2011).
pIC50: −log10 of the molar value. The source made the active and inactive calls.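 How the source made its calls: active means compounds whose IC50 for blocking RGS4-driven GTP breakdown by the G-protein falls below a set limit; inactive means IC50 above a set limit.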

target: Regulator of G-protein signaling 4 (Rattus norvegicus) (UniProt P49799); test: RGS4-stimulated Galphai1 GTP hydrolysis blockers – biochemical, rat RGS4, steady-state, receptor-independent, malachite green, confirmation (AID 588552); conditions: RGS4-stimulated Galphai1 GTPase, malachite green phosphate absorbance
Sequence (P49799 whole entry, looked up): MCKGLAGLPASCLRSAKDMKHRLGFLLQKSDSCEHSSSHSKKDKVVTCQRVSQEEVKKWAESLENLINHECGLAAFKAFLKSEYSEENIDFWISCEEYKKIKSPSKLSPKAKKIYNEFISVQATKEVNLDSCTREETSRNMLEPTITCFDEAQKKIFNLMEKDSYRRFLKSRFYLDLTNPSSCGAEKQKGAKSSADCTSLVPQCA

With `COc1cc2c(cc1O)C(SC)=NC(C)(C)C2` as the molecule, how does the pIC50 read?
Its pIC50 is 4.50.

With `CN1CCc2cc(O)cc3c2[C@H]1Cc1ccc(O)c(O)c1-3` as the molecule, how does the pIC50 read?
The pIC50 was 5.01.

How did the pIC50 turn out when `CC1=NN(c2ccc(C(=O)O)cc2)C(=O)/C1=C\c1ccc(OC(=O)c2cccs2)cc1` was run?
The pIC50 was 4.93.

For `Cc1ccc(C(C2=C(O)CC(C)(C)CC2=O)C2C(=O)CC(C)(C)CC2=O)o1` (stereo not drawn), which IC50 is on record?
The IC50 was > 110 µM (inactive).

How did the IC50 turn out when `O=C(CCNc1ccc(F)cc1)c1ccco1` was run?
The IC50 was > 110 µM (inactive).

For `Cc1csc(NC(=O)COCC(=O)O)c1-c1nc2ccccc2s1`, which IC50 is on record?
Its IC50 is > 110 µM (inactive).

Which IC50 does the source give for `CC(C)(C)c1ccc(Cn2nnc3c(=O)[nH]c(C4CCN(C(=O)Cc5cccs5)CC4)nc32)cc1` here?
The IC50 was > 110 µM (inactive).

With `CN(C)c1oc(-c2ccccc2[N+](=O)[O-])nc1C#N` as the molecule, how does the pIC50 read?
The pIC50 was 4.73.

How did the pIC50 turn out when `O=C1/C(=C/c2ccncc2)CCC/C1=C\c1ccncc1` was run?
Its pIC50 is 5.00.

`O=C1C=C(NC2=CC3OC(c4ccccc4)OCC3OC2=O)CCC1` (stereo not drawn) was tested. Which pIC50 did it give?
Its pIC50 is 4.47.

`COc1ccc(NC(=O)/C(Cl)=C(/Cl)S(=O)Cc2ccccc2)cn1` (stereo not drawn) was tested. Which pIC50 did it give?
The pIC50 was 6.00.

`CCCN1CCc2cc(O)cc3c2[C@H]1Cc1ccc(O)c(O)c1-3` was tested. Which pIC50 did it give?
Its pIC50 is 4.96.

With `Cc1ccc(C(C2C(=O)CC(C)(C)CC2=O)C2C(=O)CC(C)(C)CC2=O)s1` as the molecule, how does the pIC50 read?
The pIC50 was 4.04.

How did the IC50 turn out when `CCOCCCNC(=O)/C(C#N)=C\c1ccc(Cl)c([N+](=O)[O-])c1` was run?
The IC50 was > 110 µM (inactive).

`COc1ccc(NC(=O)/C(C#N)=C\c2ccc(Sc3nncn3C)c([N+](=O)[O-])c2)cc1` was tested. Which IC50 did it give?
The IC50 was > 110 µM (inactive).

How did the pIC50 turn out when `CN1C(=O)S/C(=C\c2ccccc2OCc2ccc(C(=O)O)cc2)C1=O` was run?
Its pIC50 is 4.12.

For `Cc1c(NC(=O)c2coc(=O)c(Br)c2)c(=O)n(-c2ccccc2)n1C`, which IC50 is on record?
The IC50 was > 110 µM (inactive).

How did the IC50 turn out when `CC(C)OP(=O)(OC(C)C)/C(C=O)=N\Nc1ccc([N+](=O)[O-])cc1` was run?
The IC50 was > 110 µM (inactive).

How did the IC50 turn out when `N#C/C(=C/c1ccc(Cl)c([N+](=O)[O-])c1)c1ccccn1` was run?
The IC50 was > 110 µM (inactive).

How did the pIC50 turn out when `Cc1cccc(N2C(=O)/C(=C/c3ccc(C(=O)O)cc3)c3ccccc3C2=O)c1` was run?
The pIC50 was 4.50.

`NC(=O)N/N=C/c1c(Sc2nnnn2-c2ccccc2)nc2ccccn2c1=O` was tested. Which pIC50 did it give?
The pIC50 was 4.26.

Which IC50 does the source give for `CCOC(=O)C1=C(O)/C(=C\c2cccc(OC)c2)N=C1C` here?
The IC50 was > 110 µM (inactive).

How did the pIC50 turn out when `CN(C)C(=O)COc1ccc(C(=O)/C=C/c2cccnc2)cc1` was run?
The pIC50 was 4.23.

How did the IC50 turn out when `N[C@@H](Cc1cc(Br)c(O)c(Br)c1)C(=O)O` was run?
Its IC50 is > 110 µM (inactive).

How did the pIC50 turn out when `CN1C/C(=C/c2ccncc2)C(=O)/C(=C/c2ccncc2)C1` was run?
Its pIC50 is 4.43.

With `Cc1cc2nc(CS)[nH]c2cc1C` as the molecule, how does the IC50 read?
The IC50 was > 110 µM (inactive).

With `CCOCCCNC(=O)/C(C#N)=C\c1ccc([N+](=O)[O-])o1` as the molecule, how does the pIC50 read?
The pIC50 was 4.97.

Which IC50 does the source give for `COC(=O)CSc1[nH]c2cc(C)ccc2c1[N+](=O)[O-]` here?
Its IC50 is > 110 µM (inactive).

With `Oc1c(Cl)cc(Cl)c2c1NCCC2` as the molecule, how does the pIC50 read?
Its pIC50 is 4.42.

`Cc1nc2c(=O)n(C)c(=O)n(C)c2nc1Cl` was tested. Which IC50 did it give?
Its IC50 is > 110 µM (inactive).

How did the IC50 turn out when `Cc1ccc(CNC(=O)c2cn(C3CCCCC3)c(=O)c3c2c2ccccc2n3C)o1` was run?
The IC50 was > 110 µM (inactive).

`O=C1/C(=C\c2ccc(Cl)cc2Cl)N2CCC1CC2` was tested. Which IC50 did it give?
Its IC50 is > 110 µM (inactive).

For `CCOC(=O)/C=C/C(=O)OCC(=O)N1CCN(C(=O)c2ccco2)CC1`, which IC50 is on record?
The IC50 was > 110 µM (inactive).

How did the IC50 turn out when `O=C(/C=C/c1ccc([N+](=O)[O-])cc1)c1ccco1` was run?
The IC50 was > 110 µM (inactive).

With `CN(C)c1ccc(C(C[N+](=O)[O-])c2c(N)n(C)c(=O)n(C)c2=O)c(F)c1C#N` (stereo not drawn) as the molecule, how does the IC50 read?
Its IC50 is > 110 µM (inactive).

With `COc1ccc2cc(C3C(C#N)=C(N)OC(C)=C3C(C)=O)c(Cl)nc2c1` (stereo not drawn) as the molecule, how does the IC50 read?
Its IC50 is > 110 µM (inactive).

`O=C1NC(=S)N(c2ccccc2F)C(=O)/C1=C\c1cccs1` was tested. Which pIC50 did it give?
The pIC50 was 4.45.

`Cn1c(OCc2ccco2)nc2c1c(=O)n(Cc1ccc(Cl)c(Cl)c1)c(=O)n2C` was tested. Which IC50 did it give?
Its IC50 is > 110 µM (inactive).

With `Cc1cc(-c2n[nH]c(=S)n2/N=C/C(Br)=C/c2ccccc2)n[nH]1` as the molecule, how does the pIC50 read?
Its pIC50 is 5.40.

Which IC50 does the source give for `Cc1ccccc1OCc1nnc(SCC(=O)Nc2ccc3c(c2)oc2ccccc23)n1C` here?
Its IC50 is > 110 µM (inactive).

For `CC1=NOC(=O)/C1=C/c1ccc(O)cc1`, which IC50 is on record?
Its IC50 is > 110 µM (inactive).

With `O=C1N=c2ccccc2=C1c1c(O)n(-c2cccc(F)c2)[nH]c1=O` as the molecule, how does the pIC50 read?
Its pIC50 is 4.25.

For `O=C/C=C/c1c(-c2ccccc2)cc2oc3ccccc3cc1-2`, which IC50 is on record?
Its IC50 is > 110 µM (inactive).

`Cc1ccc(/C=C2\C(=O)NC(=S)N(c3ccc(F)cc3)C2=O)s1` was tested. Which pIC50 did it give?
Its pIC50 is 4.96.

`COc1ccc(OC)c(N2C(=O)NC(=O)/C(=C/c3ccc([N+](=O)[O-])s3)C2=O)c1` was tested. Which pIC50 did it give?
Its pIC50 is 4.74.

Which IC50 does the source give for `O=[N+]([O-])c1ccc(O)c(/C=N/NC(=S)Nc2ccc(Cl)cc2Cl)c1` here?
Its IC50 is > 110 µM (inactive).

How did the pIC50 turn out when `O=C(O)c1ccc(/C=C2\COc3ccccc3C2=O)cc1` was run?
The pIC50 was 5.29.

With `Cc1ccc(/C=C/C(=O)N2CC(C)CC(C)C2)o1` (stereo not drawn) as the molecule, how does the pIC50 read?
Its pIC50 is 4.78.

How did the pIC50 turn out when `CN1C(=O)/C(=C\c2ccc(Br)s2)C(=O)NC1=S` was run?
The pIC50 was 4.83.

`COc1ccc(-c2csc(NC3OC(=O)c4c3ccc(OC)c4OC)n2)cc1OC` (stereo not drawn) was tested. Which IC50 did it give?
Its IC50 is > 110 µM (inactive).

With `O=C(/C=C/c1ccncc1)c1ccc2c(c1)OCCO2` as the molecule, how does the pIC50 read?
Its pIC50 is 4.51.

How did the IC50 turn out when `O=C1/C(=C\c2ccc(Cl)c(Cl)c2)N2CCC1CC2` was run?
The IC50 was > 110 µM (inactive).

With `O=C(O)c1ccc(/C=C/C(=O)c2ccc3c(c2)OCCCO3)cc1` as the molecule, how does the pIC50 read?
Its pIC50 is 4.46.

`COC(=O)CSc1[nH]c2ccccc2c1[N+](=O)[O-]` was tested. Which pIC50 did it give?
The pIC50 was 4.26.

Which IC50 does the source give for `COc1ccc(C(C[N+](=O)[O-])c2c(-c3ccccc3)cc3ccccn23)cc1OC` (stereo not drawn) here?
The IC50 was > 110 µM (inactive).

How did the pIC50 turn out when `O=C(O)c1ccc2c(c1)C(=O)N(c1cccc(C(=O)/C=C/c3ccccc3)c1)C2=O` was run?
The pIC50 was 4.63.

`O=C(N/N=C/c1cc([N+](=O)[O-])ccc1O)NC12CC3CC(CC(C3)C1)C2` was tested. Which IC50 did it give?
Its IC50 is > 110 µM (inactive).

Which IC50 does the source give for `COc1cccc(/C=C/C(=O)c2c(O)cc(C)oc2=O)c1O` here?
Its IC50 is > 110 µM (inactive).
